The target of one data set is T1, Akt3 human enzyme (Homo sapiens, UniProt Q9Y243).
T1 construct: purchased Upstate Chemicon 14-502
Kind of data set: Akt3 inhibition assay (IMAP FP). In kind it is biochemical.

Data set [1] relates to A-10 rat thoracic aorta cells. As to the kind of experiment: PDGF-stimulated smooth muscle cell proliferation assay (BrdU incorporation). It is filed as cell-based. Background: Uptake of a labelled nucleoside into DNA is a usual measure of proliferation.
Description: Effects on cell proliferation were measured using a bromodeoxyuridine (BrdU) incorporation assay. […] Serum free media containing 0.1% BSA was added to the cells. 24 hours later the media was removed and replaced with warmed serum free media. […] Proliferation was then monitored using the BrdU Cell Proiferation Assay, HTS (Calbiochem cat. # HTS01). BrdU was allowed to incorporate into cells for 24 hours prior to the addition of fixative/denaturing solution and the fluorometric detection of incorporated BrdU using a BrdU antibody as per manufacturer's directions. Data are reported as a percent of the PDGF-stimulated BrdU incorporation.
The target in the next data set is T2, ROCK1 (Homo sapiens, UniProt Q13464).
T2 construct: purchased Upstate/Chemicon 14-601
As to the kind of experiment: Rho kinase inhibition assay (IMAP fluorescence polarization), ROCK1. It is filed as biochemical. A general note: In fluorescence polarisation assays a small probe gives low polarisation when free and higher when bound to something large.

The next data set concerns the target p70S6K human enzyme (Homo sapiens, UniProt P23443, T412E). Kind of data set: p70S6K inhibition assay (IMAP FP). It is filed as biochemical.
For data set [2], the system named is cytokine secretion from LPS-stimulated human monocytes. As to the kind of experiment: Human monocyte cytokine secretion assay (LPS-stimulated). In kind it is cell-based.
Description: Peripheral blood from healthy human volunteers was collected and the monocytes isolated via Ficoll-paque density centrifugation. […] The cells were allowed to pre-incubate with test compound at the indicated concentration for 30 minutes (37° C., 5% CO2, humidified air); after which the supernatant was removed and media containing compound and 1 ng/mL LPS was added. Cells were allowed to incubate with compounds and LPS for 4 hours at 37° C. after which the supernatant was removed and stored at −80° C. Cytokine concentrations in the supernatant were determined using commercially available Bio-Rad Bio-Plex™ kits according the manufacturer's instructions.
Data set [3] is described as follows: Compound plasma concentrations in unsensitized mice at 15 min post administration. Conditions: mouse, 15 μmol/kg; mean plasma concentration in mice at 15 minutes post oral administration; read-out: Mouse Oral PK. It is filed as in vivo.
Description: Additionally, compound concentrations were determined in the plasma and lungs of male, ovalbumin-sensitized, Balb/c mice from a murine model of asthma. Test compounds were formulated in water or 1% polysorbate 80 and dosed at 15 μmol/kg for intraperitoneal (IP) or oral (PO) administration or formulated for intratracheal (IT) administration and dosed at 5 μmol/kg, which directly targets the lungs. Following completion of the in vivo study, mice were euthanized and blood and plasma collected approximately 2.5-3 hours post administration of test compound for bronchodialator (BD) studies and 24 hours post administration for anti-inflamatory (AI) studies. Lungs were homogenized in Matrix A lysing tubes using a FastPrep 24 tissue and cell homogenizer (MP Biomedicals, Solon, Ohio). Both plasma samples and lung extracts were assayed for compound concentrations using an on-line, solid phase extraction LC/MS/MS system.

Where two headings read alike, the source gives them in different places.

Sequence of p70S6K human enzyme (P23443 whole entry T412E): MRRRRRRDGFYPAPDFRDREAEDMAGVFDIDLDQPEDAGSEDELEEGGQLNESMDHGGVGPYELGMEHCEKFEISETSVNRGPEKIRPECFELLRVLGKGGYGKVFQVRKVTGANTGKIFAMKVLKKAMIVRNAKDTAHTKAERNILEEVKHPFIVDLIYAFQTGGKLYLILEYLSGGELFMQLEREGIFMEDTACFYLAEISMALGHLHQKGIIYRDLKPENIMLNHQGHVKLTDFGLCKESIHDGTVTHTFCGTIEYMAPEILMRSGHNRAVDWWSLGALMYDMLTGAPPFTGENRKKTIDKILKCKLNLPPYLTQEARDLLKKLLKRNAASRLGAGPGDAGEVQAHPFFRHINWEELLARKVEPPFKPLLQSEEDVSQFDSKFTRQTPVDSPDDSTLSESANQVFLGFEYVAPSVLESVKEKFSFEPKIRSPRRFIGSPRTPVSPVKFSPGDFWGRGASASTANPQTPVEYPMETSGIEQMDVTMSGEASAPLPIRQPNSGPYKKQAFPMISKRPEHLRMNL
T2 sequence (Q13464 17-535 limits assumed): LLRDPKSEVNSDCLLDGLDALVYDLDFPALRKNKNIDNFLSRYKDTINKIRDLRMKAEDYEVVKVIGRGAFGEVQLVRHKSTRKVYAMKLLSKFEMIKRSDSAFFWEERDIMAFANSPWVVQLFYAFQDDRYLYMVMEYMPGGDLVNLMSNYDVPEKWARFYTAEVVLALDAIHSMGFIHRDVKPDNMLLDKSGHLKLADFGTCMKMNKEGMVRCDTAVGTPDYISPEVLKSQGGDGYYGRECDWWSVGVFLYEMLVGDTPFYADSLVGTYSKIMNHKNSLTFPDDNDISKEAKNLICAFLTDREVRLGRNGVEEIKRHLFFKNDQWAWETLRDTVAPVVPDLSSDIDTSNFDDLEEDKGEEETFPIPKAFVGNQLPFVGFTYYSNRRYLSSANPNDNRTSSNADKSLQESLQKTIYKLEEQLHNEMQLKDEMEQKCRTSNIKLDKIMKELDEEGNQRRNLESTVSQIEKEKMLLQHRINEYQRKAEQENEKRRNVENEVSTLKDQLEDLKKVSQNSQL
T1 sequence (Q9Y243 whole entry): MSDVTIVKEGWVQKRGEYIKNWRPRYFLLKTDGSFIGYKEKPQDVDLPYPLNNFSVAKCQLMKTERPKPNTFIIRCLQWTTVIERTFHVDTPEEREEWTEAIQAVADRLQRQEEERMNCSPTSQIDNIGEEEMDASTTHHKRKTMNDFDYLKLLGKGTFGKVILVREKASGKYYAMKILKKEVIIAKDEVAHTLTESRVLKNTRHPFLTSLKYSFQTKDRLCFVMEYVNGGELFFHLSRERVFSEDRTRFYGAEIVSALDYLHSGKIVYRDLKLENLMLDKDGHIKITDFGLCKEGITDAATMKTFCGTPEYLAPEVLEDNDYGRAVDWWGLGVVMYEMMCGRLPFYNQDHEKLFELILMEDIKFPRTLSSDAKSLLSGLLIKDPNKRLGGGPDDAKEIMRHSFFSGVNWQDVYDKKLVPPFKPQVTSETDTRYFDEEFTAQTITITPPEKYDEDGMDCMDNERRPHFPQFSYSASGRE
Description for Akt3 human enzyme: (§1) Inhibition of Akt3 and p70S6K activity was determined using the IMAP™ FP Progressive Binding Kit (Molecular Devices product number R8127). […] Following the pre-incubation, 30 μM ATP was added to initiate the reaction. After 60 minutes at RT, Molecular Devices IMAP™ binding solution was added to bind phosphorylated substrate. After 30 minutes of incubation in the presence of the IMAP™ beads the fluorescence polarization was read and the ratio was reported as mP. IC50 results were calculated using the Prism software from Graphpad. The Ki values were determined according to the following formula: Ki=IC50/(1+([ATP Challenge]/EC50 ATP)).
Description for ROCK1: Following the pre-incubation, 10 μM ATP was added to initiate the reaction. After 60 minutes at room temperature, Molecular Devices IMAP™ binding solution was added to bind phosphorylated substrate. After 30 minutes of incubation in the presence of the IMAP™ beads, the fluorescence polarization was read and the ratio was reported as mP. IC50 values for compounds and EC50 values for ATP were calculated using the Prism software from Graphpad.
Description for p70S6K human enzyme: as §1

As a reminder, the Ki is the equilibrium dissociation constant of an inhibitor or competing ligand from its target. With `Cc1ccc(CN2CC[C@@H](Nc3cccc4cnccc34)C2)cc1OCCO` [Compound 2.064, (R)-2-(5-((3-(isoquinolin-5-ylamino)pyrrolidin-1-yl)methyl)-2-methylphenoxy)ethanol], the Ki on Akt3 human enzyme (average, read-out: Akt3 Ki) is 382 nM; at Akt3 human enzyme (read-out: Akt3 Ki, Avg), 382 nM; on ROCK1, 4.1 nM; on ROCK1 (read-out: ROCK1 Ki, average), 4.1 nM; at p70S6K human enzyme (average, read-out: p70S6K Ki), 178 nM; on p70S6K human enzyme (read-out: p70S6K Ki, Avg), 178 nM. Also, the “Percent of PDGF Induced Proliferation at 1 μM Avg” value in data set [1] (1 μM, 10 ng/mL PDGF) is recorded as 53.1%. Also, the “Percent of PDGF Induced Proliferation at 10 μM Avg” value in data set [1] (10 μM, 10 ng/mL PDGF) is reported as 56.2%. Moreover, the “Proliferation at 1 μM” value in data set [1] (average percent of PDGF stimulated proliferation at 1 μM test compound) came to 53.1%. The “Proliferation at 10 μM” value in data set [1] (average percent of PDGF stimulated proliferation at 10 μM test compound) is reported as 56.2%. The activity at 10 µM was found to be 14.3% in data set [2] (10 μM of test compound, 1 ng/mL LPS, 4 hours, read-out: IL-1β % (Percent inhibition values for inhibition of cytokine secretion)); 66.2% in data set [2] (10 μM of test compound, 1 ng/mL LPS, 4 hours, read-out: TNF-α % (Percent inhibition values for inhibition of cytokine secretion)); 45.7% in data set [2] (read-out: IL-6 % (Percent inhibition values for inhibition of cytokine secretion), 10 μM of test compound, 1 ng/mL LPS, 4 hours). Also, in data set [3], the concentration at 15 min stood at 202 nM.

The values are drawn from patent US20090325960A1, “METHOD FOR TREATING INFLAMMATORY DISEASES USING RHO KINASE INHIBITOR COMPOUNDS” (priority 2008, published 2009).
